The source of these data is patent US8674059B2, “Colon cancer related gene TOM34” (Oncotherapy Science, Inc., priority 2005, dated 2014).

Where no end group is shown, it is not given here.

Type in all cases: cell-based, human
Data set [1] has as its system HT29. In words: 51Cr-release cytotoxicity of CTL clones against HT29 cells endogenously expressing TOM34. The conditions noted are these: HT29, expresses TOM34 and HLA-A24. Here is the method: (§1) Target cells were labeled with 100 μCi of Na2^51CrO4 (Perkin Elmer Life Sciences) for 1 hr at 37° C. in a CO2 incubator. Peptide-loaded target cells were prepared by incubating the cells with 20 μg/ml of the peptide for 16 hrs at 37° C. before labeling. Labeled target cells were rinsed and mixed with effector cells in a final volume of 0.2 ml in round-bottom microtiter plates. The plates were centrifuged (4 minutes at 800×g) to increase cell-to-cell contact and placed in a CO2 incubator at 37° C. After 4 hrs of incubation, 0.1 ml of the supernatant was collected from each well and the radioactivity was determined with a gamma counter. In case of evaluating cytotoxicity for target cells that endogenously express TOM34, the cytolytic activity was tested in the presence of 30-fold excess of unlabeled K562 cells to eliminate any non-specific lysis due to NK-like effectors. […]
(§2) The percentage of specific cytotoxicity was determined by calculating the percentage of specific ^51Cr-release by the following formula: {(cpm of the test sample release−cpm of the spontaneous release)/(cpm of the maximum release−cpm of the spontaneous release)}×100. Spontaneous release was determined by incubating the target cells alone, in the absence of effector cells, and the maximum release was obtained by incubating the targets with 1N HCl. […]

Data set [2] deals with DLD-1. Description: 51Cr-release cytotoxicity of CTL clones against DLD-1 cells endogenously expressing TOM34. The conditions noted are these: DLD-1, expresses TOM34 and HLA-A24. Here is the method:
as §1, §2

For data set [3], the system named is SNU-C2A. In words: 51Cr-release cytotoxicity of CTL clones against SNU-C2A cells (TOM34 positive, HLA-A24 negative). The note with it: expresses TOM34 but not HLA-A24. Here is the method:
as §1, §2

In data set [4] the test system is TISI cells (HLA-A24/24). Description: In vitro CTL induction and 51Cr-release cytotoxicity assay against peptide-loaded TISI cells. The source says:
Monocyte-derived dendritic cells (DCs) were used as antigen-presenting cells (APCs) to induce CTLs against peptides presented on HLA. DCs were generated in vitro as described elsewhere (Nukaya I, et al., Int J Cancer. 1999; 80(1):92-7; Tsai V, et al., J Immunol. 1997; 158(4):1796-802). Briefly, peripheral blood mononuclear cells (PBMCs) were isolated from normal volunteers ((HLA-A24) by Ficoll-Paque (Pharmacia) solution and separated by adherence to a plastic tissue culture flask (Becton Dickinson) so as to enrich them for the monocyte fraction. The monocyte-enriched population was cultured in the presence of 1,000 U/ml of GM-CSF (provided by Kirin Brewery Company) and 1,000 U/ml of IL-4 (Genzyme) in AIM-V (Invitrogen) containing 2% heat-inactivated autologous serum (AS). After 7 days in the culture, the cytokine-generated DCs were loaded with 20 μg/ml of HLA-A24-binding peptides in the presence of 3 μg/ml of β2-microglobulin for 4 hrs at 20° C. in AIM-V. These peptide-loaded DCs were then irradiated (5,500 rad) and mixed at a 1:20 ratio with autologous CD8+ T cells, obtained by positive selection with Dynabeads M-450 CD8 (Dynal) and Detachabead (Dynal). This mixture was subdivided and aliquots were incubated in 48-well plates (Corning); each well contained 1.5×10^4 peptide-loaded DCs and 3×10^5 CD8+ T cells in 0.5 ml of AIM-V/2% AS containing 10 ng/ml of IL-7 (Genzyme). Three days later, these cultures were supplemented with IL-2 (CHIRON) to a final concentration of 20 IU/ml. On day 7 and 14, the T cells were further restimulated with the autologous peptide-loaded DCs. The DCs were prepared each time by the same way as described above. Cytotoxicity was tested against peptide-loaded TISI cells after the 3rd round of peptide stimulation on day 21. […]
Target cells were labeled with 100 μCi of Na2^51CrO4 (Perkin Elmer Life Sciences) for 1 hr at 37° C. in a CO2 incubator. […] After 4 hrs of incubation, 0.1 ml of the supernatant was collected from each well and the radioactivity was determined with a gamma counter. […]

The test system of data set [5] is HT29 cells. In words: Cold target inhibition assay. The conditions noted are these: E/T ratio 20; TISI with or without loaded peptide. Here is the method: FIG. 9 depict HLA specificity of the CTL clones raised by TOM34-299. The CTL clone raised by TOM34-299 specifically recognizes TOM34 in the HLA-A24 restricted manner. • The cold target inhibition assay was performed as described in “Materials and Methods”. HT29 cells labeled by Na2^51CrO4 were prepared as hot target, while TISI cells with or without loaded TOM34-299 peptide were used without ^51Cr labeling as cold targets. E/T ratio was fixed at 20.
as §1

KLRQEVKQNL [KLRQEVKQNL]: the “cytotoxic activity of two CTL clones” value in data set [1] is “potent cytotoxic activity”; in data set [2], “potent cytotoxic activity”; in data set [3], “neither of the two CTL clones showed any relevant cytotoxic activity”. Also, in data set [4] (CTL lines stimulated by the peptide, TISI loaded with peptide), the “cytotoxic activity of CTL lines against the peptide-loaded target” value is “potent cytotoxic activity”. Also, the “cytotoxic activity of CTL lines against targets not loaded with the peptide” value in data set [4] (TISI without loaded peptide) is on record as “without showing any significant cytotoxic activity”. Also, the “E/T ratio at which antigen-specific cytotoxicity of CTL lines is detectable” value in data set [4] (as low as) is recorded as 1.2. Also, the “cytotoxic activity of CTL clone against HT29 in presence of cold target TISI cells” value in data set [5] is “inhibited by the addition of TISI cells only when loaded with the peptide”.
